Here are results for 1 compound from paper PMC9599548, “EP-Pred: A Machine Learning Tool for Bioprospecting Promiscuous Ester Hydrolases” (Biomolecules, 2022).

Among the test systems are WP_014900537.1; WP_089515094.1; WP_026140314.1.
Assay in all cases: 4-nitrophenol release at […] nm, initial rates
Common to all, as to type: biochemical
Common to all, as to conditions: 5 mM EPPS pH 8.0, 30 °C; ester 0–0.04 mM

What is called Km is the substrate concentration at which the rate is half of its maximum. Consider `CCC(=O)Oc1ccc([N+](=O)[O-])cc1` [p-NP propionate], for which the Km with WP_014900537.1 was determined as 16.9 ± 1.6 µM; in the experiment on WP_089515094.1, 23.5 ± 3.5 µM; in the experiment with WP_026140314.1, 14.5 ± 1.1 µM.
